Consider 3 compounds from PubChem BioAssay (NCI).

Each structure is given as a SMILES string. In brackets after ≈: the same amount, converted by molar mass.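 Step 1: Grow cells in 96-well plates. Step 2: Expose to compound for 48 hours at 5 concentrations. Step 3: Interpolate endpoints linearly; if unreached, use highest concentration. GI50 = concentration required for 50% inhibition of growth. The concentration for full growth arrest is given as TGI.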

Assay in all cases: NCI tumour cell line growth inhibition, 48 h
The subject of experiment [1] is RPMI-8226 leukemia.
In experiment [2] the test system is K-562 leukemia.
In experiment [3] the test system is P388/ADR leukemia.
Experiment [4] relates to SN12K1 renal.
The subject of experiment [5] is MCF7 breast.
Experiment [6] relates to M19-MEL melanoma.
The subject of experiment [7] is UACC-62 melanoma.
Experiment [8] concerns P388 leukemia.
Experiment [9] relates to A498 renal.
Experiment [10] has as its system OVCAR-8 ovarian.
Experiment [11] relates to HL-60(TB) leukemia.
The test system of experiment [12] is NCI-H226 lung.
Experiment [13] concerns BT-549 breast.
The subject of experiment [14] is MDA-MB-435.
Experiment [15] concerns RXF-631 renal.
Experiment [16] concerns M14 melanoma.
Experiment [17] deals with LXFL 529 NSCLC.

For `CC(C)c1oc(=O)cc2c1C(O)C1OC(=O)C3(C)C(O)C4OC4C2(C)C13` (configuration not stated), the TGI was determined as 4.1 µM in [1]; 6.63 µM in [2]; 16.6 µM in [3]; 9.37 µM in experiment [4]; 5.23 µM in [5]; 7.75 µM in [6]. The TGI in experiment [7] is 7.44 µM; in [8], 1.23 µM; in experiment [9], 1.41 µM; in experiment [10], 10.6 µM; in [11], 1.22 µM; in experiment [12], 19.3 µM.

Regarding `Cc1nc2nc(C)n(CCN3CCOCC3)c(=O)c2c(-c2cccc([N+](=O)[O-])c2)c1C(=O)CCCCCCCCCCN1CCC(c2ccccc2)(c2ccccc2)CC1`, the figures for the GI50 in [13], in experiment [5] and in experiment [14] were 2.33 µg/mL (≈ 2.87 µM), 1.67 µg/mL (≈ 2.06 µM) and 1.9 µg/mL (≈ 2.34 µM), respectively. Also, the TGI worked out at 4.48 µg/mL (≈ 5.51 µM) in experiment [13], 3.65 µg/mL in experiment [5] and 3.79 µg/mL (≈ 4.66 µM) in experiment [14].

Take `O=C=C=P(c1ccccc1)(c1ccccc1)c1ccccc1`: the TGI in experiment [1], in [2], in experiment [15], in [6], in experiment [16] and in experiment [10] was over 100 µM each time. Moreover, the TGI in experiment [11] is 92.4 µM; in experiment [17], over 100 µM; in experiment [12], over 100 µM.
